Reference: patent US20060252683A1, “Preparation of a peptide compound (SYRAPRO-2000) and its use for the activation of protein phosphatase-2A1 enzyme” (priority 2005, published 2006)

Tests used:
protein phosphatase-2A1 = protein phosphatase-2A1 (Homo sapiens, UniProt P67775); assay: Activation of protein phosphatase-2A1 in intact Jurkat cells (DEAE Sepharose fractions of extracts assayed); type: cell-based; parameters: Protein phosphatase-2A1 purified from CD^4+ T cells as described in materials and method; endogenous in cells; host or cells: Jurkat cells; enzyme purified by DEAE Sepharose, Sephacryl S-300 HR and poly-L-lysine Agarose; conditions: Jurkat cells treated with 1000 nM for 1 hour, 0.001% DMSO
Method: Jurkat cells (a CD^4+ T cell line) were grown in RPMI 1640 and 10% (v/v) fetal bovine serum. 1600 ml of cell suspension (10^6 cells per ml) were split into two flasks and one was treated with SYRAPRO-2000 for 1 hour (circles) while the other was not (squares). The cells from each flask were collected by centrifugation, washed with 50 mM Imidazole-Cl pH 7.2 plus 150 mM NaCl and then homogenized in homogenization buffer as described in materials and methods. The homogenate from each flask was chromatographed on a DEAE Sepharose column and the eluted fractions were assayed for type 2A protein phosphatase activity as described in materials and method. Similar results were obtained in 3 independent experiments.
The effect of synthesized SYRAPRO-2000 on protein phosphatase-2A1 can be determined in intact cells. Jurkat cells, a human CD^4+ T transformed cell line. Jurkat cells are grown in RPMI 1680 medium supplemented with 5% (v/v) fetal bovine serum and antibiotics and treated or not with 1 μM of SYRAPRO-2000 for 60 minutes. Following treatment with SYRAPRO-2000, cells are harvested by centrifugation, washed and homogenized. A cell extract is prepared by centrifugation and loaded onto a DEAE Sepharose column which is washed and eluted with a liner gradient of buffer plus 0 mM NaCl to buffer plus 400 mM NaCl. […]

[1] = Dissolution of purified peptide in water; type: physicochemical
Method: SYRAPRO-2000, a peptide compound activator of protein phosphatase-2A1 was prepared by chemical synthesis on an automated Solid Phase Peptide Synthesizer. Following synthesis, it was cleaved and purified by reverse phase HPLC on a C18 column. The structure of SYRAPRO-2000 is: […]. The molecular mass of SYRAPRO-2000 was determined by MALDI ToF MS. The purified material, a white solid was readily dissolved in and reconstituted in water at ˜1-2 mg/ml. For its use as an in vitro activator of protein phosphatase-2A1, it is dissolved in the assay buffer which consisted of 0.02 ml of enzyme solution in 50 mM Imidazole-Cl pH 7.2, 0.2 mM EGTA, 0.1% (v/v) 2-mercaptoethanol and 1 mg/ml bovine serum albumin. For its use on intact cells, it is dissolved in the culture medium.

Sequence of protein phosphatase-2A1 (P67775 whole entry): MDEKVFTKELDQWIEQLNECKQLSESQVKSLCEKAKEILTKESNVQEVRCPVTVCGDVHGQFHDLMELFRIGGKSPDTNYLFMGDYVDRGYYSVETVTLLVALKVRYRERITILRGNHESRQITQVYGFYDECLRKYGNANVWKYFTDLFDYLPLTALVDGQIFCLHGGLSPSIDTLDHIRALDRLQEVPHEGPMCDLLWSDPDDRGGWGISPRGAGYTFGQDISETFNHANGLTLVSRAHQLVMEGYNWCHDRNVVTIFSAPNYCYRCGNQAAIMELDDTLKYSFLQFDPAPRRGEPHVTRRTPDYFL
Sequence of protein phosphatase-2A1 (P30153 whole entry partner): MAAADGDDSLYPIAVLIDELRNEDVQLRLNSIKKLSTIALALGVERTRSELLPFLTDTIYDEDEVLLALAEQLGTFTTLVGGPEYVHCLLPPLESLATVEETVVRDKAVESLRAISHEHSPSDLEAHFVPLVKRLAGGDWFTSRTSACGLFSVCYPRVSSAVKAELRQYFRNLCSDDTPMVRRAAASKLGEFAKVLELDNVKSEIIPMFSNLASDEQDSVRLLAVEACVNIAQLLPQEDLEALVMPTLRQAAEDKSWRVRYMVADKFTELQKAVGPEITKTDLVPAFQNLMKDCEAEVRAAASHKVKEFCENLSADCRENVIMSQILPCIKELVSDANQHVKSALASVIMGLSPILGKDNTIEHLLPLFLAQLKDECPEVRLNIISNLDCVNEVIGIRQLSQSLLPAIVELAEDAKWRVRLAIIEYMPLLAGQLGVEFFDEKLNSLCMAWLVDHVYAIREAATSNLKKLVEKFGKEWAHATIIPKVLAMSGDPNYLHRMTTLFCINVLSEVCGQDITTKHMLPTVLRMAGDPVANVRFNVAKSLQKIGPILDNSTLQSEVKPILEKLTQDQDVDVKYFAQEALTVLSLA
Sequence of protein phosphatase-2A1 (P63151 whole entry partner): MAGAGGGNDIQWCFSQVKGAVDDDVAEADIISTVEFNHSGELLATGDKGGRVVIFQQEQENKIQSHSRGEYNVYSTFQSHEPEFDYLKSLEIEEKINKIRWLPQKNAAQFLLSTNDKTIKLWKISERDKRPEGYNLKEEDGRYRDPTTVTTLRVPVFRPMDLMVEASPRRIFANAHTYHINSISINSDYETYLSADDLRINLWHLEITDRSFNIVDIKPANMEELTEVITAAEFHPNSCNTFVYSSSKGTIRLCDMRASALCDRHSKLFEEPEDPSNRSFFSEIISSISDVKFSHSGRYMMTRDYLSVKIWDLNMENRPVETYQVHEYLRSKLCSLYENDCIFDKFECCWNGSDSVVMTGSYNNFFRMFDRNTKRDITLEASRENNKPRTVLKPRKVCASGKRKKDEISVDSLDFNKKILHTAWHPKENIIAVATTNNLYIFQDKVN

CC[C@H](C)[C@H](NC(=O)[C@H](CCCNC(=N)N)NC(=O)[C@H](CO)NC(=O)[C@H](Cc1c[nH]cn1)NC(=O)[C@H](CCCNC(=N)N)NC(=O)[C@H](CS)NC(=O)CNC(=O)[C@@H](NC(=O)[C@H](CCCNC(=N)N)NC(=O)[C@H](Cc1ccccc1)NC(=O)[C@@H](N)Cc1c[nH]cn1)[C@@H](C)CC)C(=O)NCC(=O)N[C@H](C(=O)N[C@H](C(=O)N[C@@H](CCCNC(=N)N)C(=O)N[C@@H](CCC(N)=O)C(=O)N[C@@H](CCCNC(=N)N)C(=O)N[C@@H](CCCNC(=N)N)C(=O)N[C@@H](C)C(=O)N[C@@H](CCCNC(=N)N)C(=O)N[C@@H](CC(N)=O)C(=O)NCC(=O)N[C@@H](C)C(=O)N[C@@H](CO)C(=O)N[C@@H](CCCNC(=N)N)C(=O)N[C@@H](CO)C(=O)O)[C@@H](C)O)C(C)C [SYRAPRO-2000]
activity of protein phosphatase-2A1 in intact cells (protein phosphatase-2A1): became activated
readily dissolved and reconstituted in water [1]: 1 to 2 mg/mL
